In patent US10441590B2, “Methods for treating pulmonary hypertension” (Reviva Pharmaceuticals, Inc., priority 2015, dated 2019):
pKi: −log10 of the molar value. Counter-ions that a name gives are not always drawn. Like-named read-outs stand apart in the source and are kept apart here.

Legend:
Human recombinant 5-HT6 = Human recombinant 5-HT6 (Homo sapiens (Human), UniProt P50406); assay: Serotonin 5HT6 radioligand binding assay
[1] = biological target: Human Cortex or Human recombinant 5-HT2A (Homo sapiens (Human), UniProt P28223); assay: Serotonin 5HT2A radioligand binding assay; settings: for Ki: hydrochloride
Chain of Human Cortex or Human recombinant 5-HT2A (P28223 whole entry): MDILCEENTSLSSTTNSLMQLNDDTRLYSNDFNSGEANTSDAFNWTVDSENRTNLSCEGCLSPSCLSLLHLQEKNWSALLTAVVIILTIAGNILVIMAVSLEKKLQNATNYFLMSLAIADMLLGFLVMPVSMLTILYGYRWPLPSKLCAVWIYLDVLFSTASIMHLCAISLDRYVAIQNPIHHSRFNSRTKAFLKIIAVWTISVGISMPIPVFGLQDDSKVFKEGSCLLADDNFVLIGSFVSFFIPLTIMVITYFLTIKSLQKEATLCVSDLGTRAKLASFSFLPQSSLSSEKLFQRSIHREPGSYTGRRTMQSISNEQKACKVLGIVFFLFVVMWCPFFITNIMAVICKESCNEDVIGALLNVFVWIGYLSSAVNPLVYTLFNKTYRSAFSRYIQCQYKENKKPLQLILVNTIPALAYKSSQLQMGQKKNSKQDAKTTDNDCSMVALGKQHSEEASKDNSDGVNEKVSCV

[2] = test system: monocrotaline-induced pulmonary arterial hypertension (PAH) in rats; assay: Monocrotaline (MCT) induced pulmonary arterial hypertension rat model; assay type: in vivo; settings: for Body Weight gain / Diastolic pulmonary pressure / Lung weight / Mean pulmonary pressure / Oxygen saturation / Respiratory resistance / Right systolic ventricular pressure / Systolic pulmonary pressure: MCT rat, Day 0 to Day 27, Day 28
Description: The purpose of this study was to assess the effect of the test articles on the monocrotaline-induced pulmonary arterial hypertension (PAH) in rats. The assay was designed to measure the pulmonary and systemic arterial blood pressures in anaesthetized rats with PAH induced by a single subcutaneous dose of monocrotaline. The results of the study are a quantitative measurement of the progression of the disease and its effects on the pulmonary arterial blood pressure (PAP), as well as wet organ weight in rats with induced PAH with and without treatment with test article or reference compound. Furthermore, a detailed morphometric and clinical investigation of the histology of the pulmonary vasculature was performed to correlate vascular remodeling with the functional impact of the onset of the PAH.
Male Wistar-Kyoto rats (Charles River Laboratories) weighing between 200 and 250 grams (approximately 10-12 week-old) were randomized across experimental groups, according to their body weight, with the aim of scheduling one animal per treatment group for each day of terminal surgery (when possible). […] Rats from treatment groups 2 to 4 received one subcutaneous injection of monocrotaline (MCT) solution (60 mg/kg) in DMSO on Day 0 and were returned to their cages. Rats from control group 1 received one subcutaneous injection of DMSO (vehicle for monocrotaline) on Day 0 and were returned to their respective cages. […] Food and water were given ad libitum. Daily observations of the behavior and general health status of the animals were done. Weekly blood draw, body weight and body temperature were taken.
On the day of surgery, the rats were anaesthetized, instrumented and hemodynamic parameters (systemic arterial blood pressure, right ventricular blood pressure, pulmonary arterial blood pressure, oxygen saturation, respiratory resistance, ventilatory pressure, respiration rate and heart rate) were recorded continuously for 5 minutes or until loss of quality in the pulmonary arterial pressure signal, whichever came first. The recordings included moving the pressure transducer from the right ventricular cavity to the pulmonary artery and back, observing the very clear transitions in diastolic pressures and general pressure waveforms as the catheter entered the artery, and was withdrawn into the ventricle. The rats were then exsanguinated and the pulmonary circulation was flushed with 0.9% NaCl. The trachea, lungs and heart were removed as a whole from the thoracic cavity. The right and left lobes of the lung were weighed before being perfused with 10% NBF and immersed in 10% formalin. The lungs were stored in 10% formalin at room temperature. The heart was excised to measure the wet weights of the right ventricle (RV) and left ventricle including the septum (LV-S) as part of the Fulton index calculation. Arterial blood pressure was recorded continuously throughout the experiment via an intra-arterial fluid-filled catheter (AD Instruments, Colorado Springs, Colo., USA). Diastolic and systolic pressures values were measured in mmHg using cursors readings in the Clampfit 10.2.0.14. Mean arterial blood pressure values were calculated using the following formula:
[formula] Values are presented as means±SEM (standard error of the means). Repeat unpaired Student's t-tests were performed in Microsoft Excel 2007 on all experimental conditions, comparing treatment groups to either the control, healthy animals, or the negative control animals (monocrotaline only). Differences were considered significant when p≤0.05. The study results are described in Table 2.

Human recombinant 5-HT7 = Human recombinant 5-HT7 (Homo sapiens (Human), UniProt P34969); assay: Serotonin 5HT7 radioligand binding assay
Chain of Human recombinant 5-HT7 (P34969 whole entry): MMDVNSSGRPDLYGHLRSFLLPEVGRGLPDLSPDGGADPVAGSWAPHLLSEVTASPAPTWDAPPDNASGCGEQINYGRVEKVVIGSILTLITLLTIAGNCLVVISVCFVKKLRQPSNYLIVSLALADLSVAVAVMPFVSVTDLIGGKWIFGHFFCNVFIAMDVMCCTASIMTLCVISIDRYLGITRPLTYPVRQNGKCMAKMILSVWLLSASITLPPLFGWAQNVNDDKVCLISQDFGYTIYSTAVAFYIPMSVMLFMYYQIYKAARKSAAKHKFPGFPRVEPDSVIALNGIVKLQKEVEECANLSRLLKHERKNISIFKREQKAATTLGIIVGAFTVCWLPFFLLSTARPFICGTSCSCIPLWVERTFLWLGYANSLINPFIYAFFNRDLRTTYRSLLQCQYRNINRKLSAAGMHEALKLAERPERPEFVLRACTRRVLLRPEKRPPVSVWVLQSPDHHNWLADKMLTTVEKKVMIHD

Human recombinant 5-HT2B = Human recombinant 5-HT2B (Homo sapiens (Human), UniProt P41595); assay: Serotonin 5HT2B radioligand binding assay
Chain of Human recombinant 5-HT2B (P41595 whole entry): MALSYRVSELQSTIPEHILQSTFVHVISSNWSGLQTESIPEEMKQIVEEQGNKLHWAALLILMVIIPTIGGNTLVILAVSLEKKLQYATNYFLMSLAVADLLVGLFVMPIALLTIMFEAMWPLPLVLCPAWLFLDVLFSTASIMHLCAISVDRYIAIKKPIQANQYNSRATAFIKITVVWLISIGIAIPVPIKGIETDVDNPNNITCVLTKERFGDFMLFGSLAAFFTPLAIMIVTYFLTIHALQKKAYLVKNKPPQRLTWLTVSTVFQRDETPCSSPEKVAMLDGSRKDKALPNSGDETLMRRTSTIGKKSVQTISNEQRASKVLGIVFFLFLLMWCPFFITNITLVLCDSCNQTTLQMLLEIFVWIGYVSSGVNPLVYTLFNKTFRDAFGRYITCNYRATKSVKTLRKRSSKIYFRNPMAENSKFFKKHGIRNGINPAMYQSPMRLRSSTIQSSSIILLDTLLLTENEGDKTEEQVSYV

[3] = test system: Sugen-Hypoxia (SuHx) induced pulmonary arterial hypertension (PAH) in rats; assay: Sugen-hypoxia (SuHx) induced pulmonary arterial hypertension rat model; assay type: in vivo; settings: for Body Weight gain / Diastolic pulmonary pressure / Lung weight / Mean pulmonary pressure / Oxygen saturation / Respiratory resistance / Right systolic ventricular pressure / Systolic pulmonary pressure: SuHx rat, Day 14 to Day 34, Day 35
Description: The assay was designed to measure the pulmonary arterial blood pressures in anaesthetized rats with PAH induced by a single subcutaneous dose of Sugen combined with three weeks in hypoxia. Combined with a macroscopic and morphometric histological examination of the tissues harvested from the animals, the results of the provide a quantitative measurement of the progression of the disease on the systemic arterial blood pressure, pulmonary arterial blood pressure, as well as wet organ weight and vascular remodeling in rats with SuHx-induced PAH treated with test article, vehicle, or reference compound.
Male Wistar-Kyoto rats (Charles River Laboratories) weighing between 200 and 250 grams (approximately 10-12 week-old) were randomized across experimental groups according to their body weight, with the aim of scheduling one rat per treatment group for each day of terminal surgery (when possible). […] Rats from Groups 2 to 4 (see Table 3) received a single subcutaneous injection of sugen (20 mg/kg) in DMSO on Day 0 and returned to their cages. Rats from Group 1 received one subcutaneous injection of DMSO (vehicle for sugen) on Day 0 and returned to their respective cages. Groups 2-4 were placed in cages for which the controlled air was adjusted to receive a FiO2 equivalent to 0.10 (10%) using a mixture of nitrogen and ambient air controlled by the ventilated cage system. They were kept under these hypoxic conditions for 21 days. While in hypoxia, cages were cleaned and changed every 48 hours, exposing the animals to ambient oxygen levels for less than 5 minutes per cleaning session. The animals were then exposed to ambient oxygen levels from Day 22 to Day 35. Group 1 animals remained in cages exposed to ambient oxygen levels for 35 days. The animals were observed on a daily basis for any changes in their behavior and general health status. […] Food and water were given ad libitum. Daily observation of the behavior and general health status of the animals was done. Weekly blood draws and body weights were taken. On the day of surgery, the rats were anaesthetized, instrumented and hemodynamic parameters (systemic arterial blood pressure, right ventricular blood pressure, pulmonary arterial blood pressure, oxygen saturation, respiratory resistance, ventilatory pressure, respiration rate and heart rate) were recorded continuously for 5 minutes or until loss of quality in the pulmonary arterial pressure signal, whichever came first. The recordings included moving the pressure transducer from the right ventricular cavity to the pulmonary artery and back, observing the very clear transitions in diastolic pressures and general pressure waveforms as the catheter entered the artery, and was withdrawn into the ventricle. The rats were then exsanguinated and the pulmonary circulation was flushed with 0.9% NaCl. The trachea, lungs and heart were removed as a whole from the thoracic cavity. The right and left lobes of the lung were weighed before being perfused with 10% NBF and immersed in 10% formalin. The lungs were stored in 10% formalin at room temperature. The heart was excised to measure the wet weights of the right ventricle (RV) and left ventricle including the septum (LV-S) as part of the Fulton index calculation.
Mean arterial blood pressure values and Fulton's index were calculated using the following formula as described above in Example 2. The study results are described in Table 4.

Human recombinant 5-HT1A = Human recombinant 5-HT1A (Homo sapiens (Human), UniProt P08908); assay: Serotonin 5HT1A radioligand binding assay
Human recombinant D2S = Human recombinant D2S (Homo sapiens (Human), UniProt P14416); assay: Dopamine D2S radioligand binding assay
Chain of Human recombinant D2S (P14416 other isoform, or with tags, fused parts or gaps): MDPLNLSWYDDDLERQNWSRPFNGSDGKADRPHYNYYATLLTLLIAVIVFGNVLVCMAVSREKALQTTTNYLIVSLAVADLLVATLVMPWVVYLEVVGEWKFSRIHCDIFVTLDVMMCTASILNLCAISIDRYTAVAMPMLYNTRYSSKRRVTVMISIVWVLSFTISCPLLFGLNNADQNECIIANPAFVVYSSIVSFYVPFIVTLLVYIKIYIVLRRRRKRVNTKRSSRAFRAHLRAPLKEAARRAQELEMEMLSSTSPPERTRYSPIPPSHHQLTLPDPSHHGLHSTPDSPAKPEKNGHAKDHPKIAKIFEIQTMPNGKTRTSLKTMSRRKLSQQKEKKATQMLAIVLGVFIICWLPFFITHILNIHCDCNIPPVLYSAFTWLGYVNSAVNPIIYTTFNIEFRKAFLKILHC

Chain of Human recombinant 5-HT6 (P50406 whole entry): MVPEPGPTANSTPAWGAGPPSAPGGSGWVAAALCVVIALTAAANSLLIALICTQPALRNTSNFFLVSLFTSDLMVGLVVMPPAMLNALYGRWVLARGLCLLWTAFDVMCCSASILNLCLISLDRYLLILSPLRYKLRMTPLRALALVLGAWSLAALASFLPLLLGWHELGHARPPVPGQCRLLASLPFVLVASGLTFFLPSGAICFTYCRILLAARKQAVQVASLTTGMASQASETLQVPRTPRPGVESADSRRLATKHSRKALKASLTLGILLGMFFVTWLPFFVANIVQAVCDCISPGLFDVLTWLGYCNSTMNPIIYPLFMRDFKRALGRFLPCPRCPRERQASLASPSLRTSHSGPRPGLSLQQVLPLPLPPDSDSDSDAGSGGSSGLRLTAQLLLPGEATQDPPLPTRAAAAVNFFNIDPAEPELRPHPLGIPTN

Q: With `O=C1COc2ccc(OCCCCN3CCN(c4cccc(Cl)c4Cl)CC3)cc2N1` [Compound B, 6-(4-(4-(2,3-dichlorophenyl)piperazin-1-yl)butoxy)-2H-benzo[b][1,4]oxazin-3(4H)-one hydrochloride] as the molecule, how does the pKi (Human recombinant 5-HT6) read?
A: Its pKi is 7.29.

Q: And the Ki [1]?
A: Its Ki is 2.50 nM.

Q: And the Ki ([1]; listed as compound B)?
A: Its Ki is 2.5 nM.

Q: And the “efficacy for PAH” value ([2]; MCT induced PAH rat model, summary statement)?
A: The value was “demonstrated efficacy for PAH”.

Q: What about the “Body Weight gain” value ([2]; 3 mg/kg bid oral gavage) of the same molecule?
A: The value was 22.9 g.

Q: And the Diastolic pulmonary pressure ([2]; 3 mg/kg bid oral gavage)?
A: The Diastolic pulmonary pressure was 19.2 mmHg.

Q: And the Lung weight ([2]; 3 mg/kg bid oral gavage)?
A: The Lung weight was 0.86%.

Q: What about the Mean pulmonary pressure ([2]; 3 mg/kg bid oral gavage) of the same molecule?
A: The Mean pulmonary pressure was 32.0 mmHg.

Q: What about the Oxygen saturation ([2]; 3 mg/kg bid oral gavage) of the same molecule?
A: The Oxygen saturation was 93.5%.

Q: What about the Respiratory resistance ([2]; 3 mg/kg bid oral gavage) of the same molecule?
A: The Respiratory resistance was 15.7.

Q: What about the “Right systolic ventricular pressure” value ([2]; 3 mg/kg bid oral gavage) of the same molecule?
A: Its value is 58.4 mmHg.

Q: What about the Systolic pulmonary pressure ([2]; 3 mg/kg bid oral gavage) of the same molecule?
A: Its Systolic pulmonary pressure is 57.7 mmHg.

Q: What about the “Body Weight gain” value ([2]; 10 mg/kg bid oral gavage) of the same molecule?
A: Its value is 23.1 g.

Q: What about the Diastolic pulmonary pressure ([2]; 10 mg/kg bid oral gavage) of the same molecule?
A: Its Diastolic pulmonary pressure is 14.7 mmHg.

Q: What about the Lung weight ([2]; 10 mg/kg bid oral gavage) of the same molecule?
A: Its Lung weight is 0.86%.

Q: And the Mean pulmonary pressure ([2]; 10 mg/kg bid oral gavage)?
A: The Mean pulmonary pressure was 24.1 mmHg.

Q: And the Oxygen saturation ([2]; 10 mg/kg bid oral gavage)?
A: The Oxygen saturation was 96.5%.

Q: And the Respiratory resistance ([2]; 10 mg/kg bid oral gavage)?
A: Its Respiratory resistance is 10.7.

Q: And the “Right systolic ventricular pressure” value ([2]; 10 mg/kg bid oral gavage)?
A: Its value is 43.1 mmHg.

Q: And the Systolic pulmonary pressure ([2]; 10 mg/kg bid oral gavage)?
A: The Systolic pulmonary pressure was 43.0 mmHg.

Q: What about the “severity of PAH (right ventricular hypertrophy, pulmonary artery pressure, respiratory resistance)” value ([2]; MCT, summary statement) of the same molecule?
A: The value was “decreasing the severity of PAH”.

Q: And the pKi (Human recombinant 5-HT7)?
A: The pKi was 8.57.

Q: And the pKi (Human recombinant 5-HT2B)?
A: Its pKi is 9.72.

Q: And the “efficacy for PAH” value ([3]; SuHx induced PAH rat model, summary statement)?
A: Its value is “demonstrated efficacy for PAH”.

Q: What about the “Body Weight gain” value ([3]; 10 mg/kg bid oral gavage) of the same molecule?
A: The value was 66.7 g.

Q: What about the Diastolic pulmonary pressure ([3]; 10 mg/kg bid oral gavage) of the same molecule?
A: Its Diastolic pulmonary pressure is 15.3 mmHg.

Q: And the Lung weight ([3]; 10 mg/kg bid oral gavage)?
A: The Lung weight was 0.65%.

Q: What about the Mean pulmonary pressure ([3]; 10 mg/kg bid oral gavage) of the same molecule?
A: The Mean pulmonary pressure was 20.9 mmHg.

Q: And the Oxygen saturation ([3]; 10 mg/kg bid oral gavage)?
A: Its Oxygen saturation is 95.9%.

Q: What about the Respiratory resistance ([3]; 10 mg/kg bid oral gavage) of the same molecule?
A: Its Respiratory resistance is 12.4.

Q: What about the “Right systolic ventricular pressure” value ([3]; 10 mg/kg bid oral gavage) of the same molecule?
A: The value was 32.8 mmHg.

Q: What about the Systolic pulmonary pressure ([3]; 10 mg/kg bid oral gavage) of the same molecule?
A: Its Systolic pulmonary pressure is 32.2 mmHg.

Q: What about the “Body Weight gain” value ([3]; 20 mg/kg bid oral gavage) of the same molecule?
A: The value was 50.8 g.

Q: What about the Diastolic pulmonary pressure ([3]; 20 mg/kg bid oral gavage) of the same molecule?
A: The Diastolic pulmonary pressure was 14.7 mmHg.

Q: And the Lung weight ([3]; 20 mg/kg bid oral gavage)?
A: Its Lung weight is 0.62%.

Q: What about the Mean pulmonary pressure ([3]; 20 mg/kg bid oral gavage) of the same molecule?
A: Its Mean pulmonary pressure is 20.4 mmHg.

Q: What about the Oxygen saturation ([3]; 20 mg/kg bid oral gavage) of the same molecule?
A: Its Oxygen saturation is 96.9%.

Q: What about the Respiratory resistance ([3]; 20 mg/kg bid oral gavage) of the same molecule?
A: Its Respiratory resistance is 11.1.

Q: And the “Right systolic ventricular pressure” value ([3]; 20 mg/kg bid oral gavage)?
A: The value was 34.2 mmHg.

Q: What about the Systolic pulmonary pressure ([3]; 20 mg/kg bid oral gavage) of the same molecule?
A: The Systolic pulmonary pressure was 32.0 mmHg.

Q: And the “severity of PAH (right ventricular hypertrophy, pulmonary artery pressure, respiratory resistance)” value ([3]; SuHx, summary statement)?
A: The value was “decreasing the severity of PAH”.

Q: With “6-(4-(4-(2-methoxyphenyl)piperazin-1-yl)butoxy)-2H-benzo[b][1,4]oxazin-3(-4H)-one hydrochloride [Compound A]” as the molecule, how does the pKi (Human recombinant 5-HT1A) read?
A: Its pKi is 9.19.

Q: What about the pKi [1] of the same molecule?
A: Its pKi is 6.93.

Q: And the pKi (Human recombinant D2S)?
A: Its pKi is 9.52.
